The target in test [1] is T1, AChE from Electrophorus electricus (Electrophorus electricus, UniProt O42275).
T1 construct: purchased Sigma (St. Louis, MO, USA)
In words: biochemical. Particulars: for IC50: Ellman's method, read-out: IC50 in the AChEI assay. The procedure: AChEI activity was measured using Ellman’s method. AChE hydrolyzes the substrate ACTI into acetate and thiocholine. In a neutral and alkaline medium; thiocholine reacts with DTNB to give yellow colored 2-nitro-5-thiobenzoate, which can be detected spectrophotometrically at 405 nm. Briefly, in a 96-well plate, 25 µL of 15 mM ACTI, 125 µL of 3 mM DTNB in buffer B (50 mM Tris HCl, pH = 8, 0.1 M NaCl, 0.02 M MgCl2·6H2O), 50 µL of buffer A (50 mM Tris-HCl, PH 8, 0.1% BSA) and 25 µL of tested sample (dissolved in 25% DMSO) were mixed, and the absorbance was measured using a microplate reader (Biotek, Winooski, VT, USA) at 405 nm every 16 s ten times. Then, 25 µL of AChE (0.25 U/mL in buffer A) was added and the absorbance was measured ten times every 16 s. A solution of 25% DMSO was used as a negative control. Absorbance was plotted against time and enzyme activity was calculated from the slope of the line so obtained and expressed as a percentage compared to an assay using a buffer without any inhibitor. Fractions were tested at 400 µg/mL. To avoid any increase in absorbance due to the color of the compounds or spontaneous hydrolysis of the substrate, the absorbance before addition of the enzyme was subtracted from the absorbance after adding the enzyme.
IC50 values of isolated compounds in AChEI and scavenging of hydroxyl radical assays were calculated using Probit Analysis (SPSS Version 16.0 for Windows, SPSS Inc., Chicago, IL, USA) for five different concentrations in three independent experiments. Cell viability was expressed as a percentage of MTT reduction, assuming that the viability of cells treated with 1% DMSO as a negative control was 100%. Figures were built in Microsoft Excel 2010. All values are the mean ± SD of three independent experiments. Data were analyzed for statistical significance using one-way ANOVA, followed by Dunnet’s test as a post-hoc test with GraphPad Prism 5.0 software for Windows (Inc., San Diego, CA, USA).
On the technique in general: Ellman's reagent forms a yellow product with free thiols.

The subject of test [2] is neuro-2A cells. Kind of test: Protection against H2O2-induced neurotoxicity (MTT). Type of test: cell-based, Mouse. The settings on record: for neuroprotection against H2O2-induced neurotoxicity (in words): 6.25-100 µM, H2O2 150 µM; for Protection against H2O2: summary Table 4. The method, then:
(§1) Neuro-2A cell line was maintained in Eagle’s Minimum Essential medium supplemented with 10% fetal bovine serum, 1% of 100× antibiotic—antimitotic agents (containing penicillin and streptomycin) in a humid atmosphere of 5% (v/v) CO2 and 95% (v/v) air at 37 °C. Neuro-2A cells were plated in 96-well cell culture plates at a density of 3 × 10^4 cells/well for H2O2 and intracellular ROS assays and 2.5 × 10^3 cells/well for the Aβ25-35-assay.
(§2) Cell viability was determined by MTT reduction assay. Briefly, after treatment with isolated compounds, the media was replaced by fresh one after washing the cells with 100 µL PBS and 20 µL of MTT (5 mg/mL) was added to each well. After 4 h incubation at 37 °C, the state of cells was checked under microscope to confirm either cytotoxicity in H2O2 and Aβ25-35 wells or protection in positive controls and isolated compounds ones. The supernatants were aspirated carefully, and 150 µL of DMSO was added to each well to dissolve the dark blue formazan crystals. The absorbance was measured using a microplate reader at 570 nm.
H2O2 interacts with metals in the medium, producing highly cytotoxic hydroxyl radicals that induce neurotoxicity. So, active compounds are those that can scavenge free radicals and increase the cell viability. This assay was performed as previously described with slight modifications. Briefly, the concentration of H2O2 that decreased cell viability to about 50% was determined as follows: cells were cultured in a 96-well plate and after 24 h were further incubated with different concentrations of H2O2 (50, 100, 150, 200 µM) freshly prepared from 30% stock solution. After 24 h, cell viability was determined using the MTT reduction method. H2O2 at a concentration of 150 µM had the desired cytotoxicity and was used for the next step.

Test [3] has as its system intracellular ROS in Neuro-2A cells. Kind of test: Scavenging of intracellular reactive oxygen species (Bes-H2O2-AC, DFF fluorescence). On Intracellular ROS Scavenging: key: +: Weak activity; ++: Strong activity. The format is cell-based, Mouse. The settings on record: for decrease of DFF fluorescence intensity (intracellular ROS): only at the higher concentration of 100 µM, H2O2 600 µM 30 min; for Intracellular ROS Scavenging: summary Table 4. The procedure:
as §1
This assay was performed as previously described with some modifications. Briefly, Neuro-2A cells were seeded in 96-well Clear Fluorescence Black Plate (number 655090, Greiner Bio-one, Tokyo, Japan). Cells were treated with three different concentrations (25, 50, 100 µM) of the samples. After 2 h incubation, cells were subjected to oxidative stress using 600 µM of H2O2 for 30 min. The nucleus was stained by Hoechst 33342 (Dojindo, Kumamoto, Japan), and the amount of difluorofluorescein (DFF) released from the reaction of H2O2 and BES-H2O2-Ac was taken as an indication of the amount of intracellular H2O2 and ROS. Images of each well were acquired using an IN Cell Analyzer 1000 (GE Healthcare, Buckinghamshire, UK) using 360-nm (Hoechst 33342) and 480-nm (BES-H2O2-Ac) excitation filters and monitored through 460-nm and 535-nm emission filters, respectively. Developer software was used to analyze the images of Hoechst 33342 and BES-H2O2-Ac staining, and the resulting data were then applied to Spotfire Decision Site Client 8.2 software for visualizing the results.

For test [4], the system named is neuro-2A cells. In words: Protection against Aβ25-35-induced neurotoxicity (MTT). On Protection against Aβ25-35: key: +: Weak activity; ++: Strong activity. The format is cell-based, Mouse. The settings on record: for Protection against Aβ25-35: summary Table 4; for neuroprotection against Aβ25-35 (in words): at the highest concentration (100 µM). The method, then: as §1, §2
Similarly, the concentration of Aβ25-35 that decreased cell viability to about 50% was determined. […] So, the cells were incubated with different concentrations of the isolated compounds (6.25, 12.5, 25, 50 and 100 µM) and EGCG as a positive control for 3 h followed by Aβ25-35 treatment for 72 h.

Molecules are shown by their SMILES.

As a reminder, the IC50 is the concentration that gives 50% inhibition. One may read the inhibition as the change of the read-out against control, counted positive when it falls. A lower inhibition goes with a weak effect.

T1 sequence (O42275 24-633): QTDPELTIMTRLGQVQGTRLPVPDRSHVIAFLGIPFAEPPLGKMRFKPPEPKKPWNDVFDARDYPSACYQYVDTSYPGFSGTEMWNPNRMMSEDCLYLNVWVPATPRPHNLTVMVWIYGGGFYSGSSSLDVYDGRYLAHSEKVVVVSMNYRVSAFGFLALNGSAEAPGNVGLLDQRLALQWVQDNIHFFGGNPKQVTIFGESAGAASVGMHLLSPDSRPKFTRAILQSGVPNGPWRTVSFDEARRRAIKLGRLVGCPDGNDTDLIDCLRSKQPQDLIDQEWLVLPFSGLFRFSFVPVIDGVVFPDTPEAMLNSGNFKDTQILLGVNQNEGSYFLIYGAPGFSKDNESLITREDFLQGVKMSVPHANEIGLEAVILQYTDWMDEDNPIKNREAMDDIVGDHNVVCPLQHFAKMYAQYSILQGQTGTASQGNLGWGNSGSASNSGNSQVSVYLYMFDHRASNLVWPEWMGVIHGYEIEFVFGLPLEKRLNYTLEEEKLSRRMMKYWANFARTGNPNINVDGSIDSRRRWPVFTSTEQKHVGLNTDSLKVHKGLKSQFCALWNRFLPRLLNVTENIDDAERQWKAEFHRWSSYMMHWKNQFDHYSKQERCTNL

In the case of `CC(=O)OC1c2c(ccc3ccc(=O)oc23)OC(C)(C)C1OC(=O)C(C)(O)C(C)O` (stereo not shown) [Hyuganin E (6), hyuganin E], in test [1], the IC50 is 286.5 ± 2.1 µM. Further, in the test on neuro-2A cells [2], the “neuroprotection against H2O2-induced neurotoxicity (in words)” value is “significant (p < 0.05) increase in cell viability at 100 µM” and the “Protection against H2O2” value was “+”. In test [3], the “decrease of DFF fluorescence intensity (intracellular ROS)” value is on record as “decrease the fluorescence intensity” and the “Intracellular ROS Scavenging” value is “+”. For the same compound, in the test on neuro-2A cells [4], the “Protection against Aβ25-35” value is “++”.
As to `O=c1c(O)c(-c2ccc(O)cc2)oc2cc(O)cc(O)c12` [Kaempferol (8), kaempferol], in test [1] (at 250 µM), testing at 250 µM gave an inhibition of 30%. Further, in the test on neuro-2A cells [2], the “neuroprotection against H2O2-induced neurotoxicity (in words)” value is on record as “significant (p < 0.05) increase in cell viability at 100 µM” and the “Protection against H2O2” value is given as “+”. Also, in test [3], the “decrease of DFF fluorescence intensity (intracellular ROS)” value was “decrease the fluorescence intensity” and the “Intracellular ROS Scavenging” value is “+”. For the same compound, in the test on neuro-2A cells [4], the “neuroprotection against Aβ25-35 (in words)” value is given as “significant neuroprotection (p < 0.05)” and the “Protection against Aβ25-35” value is “+”.
As for `O=c1c(OC2OC(CO)C(O)C(O)C2O)c(-c2ccc(O)cc2)oc2cc(O)cc(O)c12` (stereo not shown) [Kaempferol-3-O-glucoside (13), kaempferol-3-O-glucoside], in test [1], the half-inhibitory concentration (IC50) was found to be 80.4 ± 5.1 µM. Besides, in the test with neuro-2A cells [2], the “neuroprotection against H2O2-induced neurotoxicity (in words)” value is “significant (p < 0.05) increase in cell viability at 100 µM” and the “Protection against H2O2” value is recorded as “+”. For the same compound, in test [3], the “Intracellular ROS Scavenging” value is on record as “+”. In the test on neuro-2A cells [4], the “neuroprotection against Aβ25-35 (in words)” value is “significant neuroprotection (p < 0.05)” and the “Protection against Aβ25-35” value is recorded as “+”.

For the origin of these results see article PMC6272295, “In Vitro Neuroprotective Activities of Compounds from Angelica shikokiana Makino” (Molecules, 2015).
